Tests used:
human 5-HT1A receptor = molecular target: T1, human 5-HT1A receptor (Homo sapiens, UniProt P08908); assay: [3H]8-OH-DPAT binding to human 5-HT1A receptor in CHO cell membranes
T1 construct: expressed in transfected cells
T1 sequence (P08908 1-422): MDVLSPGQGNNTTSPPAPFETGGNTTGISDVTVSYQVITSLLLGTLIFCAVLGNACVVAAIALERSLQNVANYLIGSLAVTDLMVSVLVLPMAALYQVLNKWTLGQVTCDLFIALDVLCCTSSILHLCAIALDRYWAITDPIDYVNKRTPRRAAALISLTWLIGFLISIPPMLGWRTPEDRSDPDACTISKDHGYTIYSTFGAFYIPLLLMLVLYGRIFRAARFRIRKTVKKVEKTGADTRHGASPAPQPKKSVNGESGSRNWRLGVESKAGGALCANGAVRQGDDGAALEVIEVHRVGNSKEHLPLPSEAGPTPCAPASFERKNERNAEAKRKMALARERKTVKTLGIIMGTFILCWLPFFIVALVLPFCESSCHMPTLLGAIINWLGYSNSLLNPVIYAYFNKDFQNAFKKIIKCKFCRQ
Procedure: The PCR cloning of the human 5-HT1A receptor subtype from a human genomic library has been described previously by Chanda et al., Mol. Pharmacol., 43:516 (1993). A stable Chinese hamster ovary cell line expressing the human 5-HT1A receptor subtype (5-HT1A.CHO cells) was employed throughout this study. Cells were maintained in DMEM supplemented with 10% fetal calf serum, non-essential amino acids and penicillin/ streptomycin.
Cells were grown to 95-100% confluency as a monolayer before membranes were harvested for binding studies. Cells were gently scraped from the culture plates, transferred to centrifuge tubes, and washed twice by centrifugation (2000 rpm for 10 min., 4° C.) in buffer (50 mM Tris; pH 7.5). The resulting pellets were aliquoted and maintained at -80.C. On the day of assay, the cells were thawed on ice, and resuspended in buffer. Studies were conducted using [^3 H]8-OH-DPAT as the radioligand. The binding assay was performed in 96 well microtiter plates in a final total volume of 250 μL of buffer. Comparison experiments were performed by using 7 concentrations of unlabelled drug and a final ligand concentration of 1.5 nM. Non-specific binding was determined in the presence of 10 μM 5HT. Saturation analysis was conducted by using [^3 H]8-OH-DPAT at concentrations ranging from 0.3-30 nM. […]

serotonin transporter = molecular target: T2, serotonin transporter (Rattus norvegicus, UniProt P31652); assay: 3H-paroxetine binding, affinity for the serotonin transporter (ST) in frontal cortical membranes; design: species or system male Sprague-Dawley rats; conditions: 1 h, @ 100 nM
T2 construct: frontal cortical membranes prepared from male Sprague-Dawley rats; from tissue; host or cells: frontal cortex membranes of male Sprague-Dawley rats
T2 sequence (P31652 whole entry): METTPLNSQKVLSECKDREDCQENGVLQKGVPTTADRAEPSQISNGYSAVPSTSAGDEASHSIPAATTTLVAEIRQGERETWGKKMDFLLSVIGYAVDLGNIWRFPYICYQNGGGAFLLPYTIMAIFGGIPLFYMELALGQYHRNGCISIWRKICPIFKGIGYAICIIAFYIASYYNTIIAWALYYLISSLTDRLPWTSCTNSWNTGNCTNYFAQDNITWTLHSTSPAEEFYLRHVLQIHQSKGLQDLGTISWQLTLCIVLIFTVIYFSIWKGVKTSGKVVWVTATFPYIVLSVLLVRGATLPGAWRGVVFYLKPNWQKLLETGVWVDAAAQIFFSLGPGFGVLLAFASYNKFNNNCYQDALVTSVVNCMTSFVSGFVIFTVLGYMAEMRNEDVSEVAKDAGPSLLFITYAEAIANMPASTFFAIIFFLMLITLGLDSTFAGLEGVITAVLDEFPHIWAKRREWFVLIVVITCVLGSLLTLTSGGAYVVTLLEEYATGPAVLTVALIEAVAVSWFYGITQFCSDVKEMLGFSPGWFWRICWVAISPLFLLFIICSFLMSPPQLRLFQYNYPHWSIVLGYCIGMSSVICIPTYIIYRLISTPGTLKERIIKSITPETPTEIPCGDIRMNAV
Procedure: A protocol similar to that used by Cheetham et al., Neuropharmacol., 32:737 (1993) was used to determine the affinity of compounds for the serotonin transporter. Briefly, frontal cortical membranes prepared from male Sprague-Dawley rats were incubated with ^3 H-paroxetine (0.1 nM) for 60 min at 25° C. All tubes also contained either vehicle, test compound (one to eight concentrations), or a saturating concentration of fluoxetine (10 μM) to define […]. All reactions were terminated by the addition of ice cold Tris buffer followed by rapid filtration using a Tom Tech filtration device to separate bound from free ^3 H-paroxetine. Bound radioactivity was quantitated using a Wallac 1205 Beta Plate® counter. Nonlinear regression analysis was used to determine IC50 values which were converted to Ki values using the method set forth in Cheng and Prusoff, Biochem. Pharmacol., 22:3099 (1973) (Ki=IC50/((Radioligand conc.)/(1+KD)).

SMILES | inhibition at 1 µM (human 5-HT1A receptor; 0.5 h, @ 1000 nM, [3H]8-OH-DPAT) [%] | inhibition at 0.1 µM (serotonin transporter) [%] | Ki (human 5-HT1A receptor) [µM]
COc1ccsc1C1=CCN([C@H]2CC[C@@H](c3c[nH]c4ccc(F)cc43)CC2)CC1 [Example 1, 5-Fluoro-3-{(1,4-cis)-4-[4-(3-methoxy-thiophen-2-yl)-3,6-dihydro-2H-pyridin-1-yl]-cyclohexyl}-1H-indole] | 48 | – | –
COc1ccsc1C1=CCN([C@H]2CC[C@H](c3c[nH]c4ccc(F)cc43)CC2)CC1 [Example 2, 5-Fluoro-3-{(1,4-trans)-4-[4-(3-methoxy-thiophen-2-yl)-3,6-dihydro-2H-pyridin-1-yl]-cyclohexyl}-1H-indole] | – | 18 | 0.0204

Source: patent publication US6200994A, “1,4-Disubstituted cyclohexane derivatives for the treatment of depression” (American Home Products Corp, priority 1999, dated 2001)
